Data on 2 compounds can be found in ChEMBL document CHEMBL5678818, “Discovery of potent SOS1 inhibitors that block RAS activation via disruption of the RAS-SOS1 interaction” (Proc Natl Acad Sci U S A, 2019).

For assay [1], the target named is T1, Ephrin type-B receptor 4 (Homo sapiens) (UniProt P54760).
T1 sequence (whole entry): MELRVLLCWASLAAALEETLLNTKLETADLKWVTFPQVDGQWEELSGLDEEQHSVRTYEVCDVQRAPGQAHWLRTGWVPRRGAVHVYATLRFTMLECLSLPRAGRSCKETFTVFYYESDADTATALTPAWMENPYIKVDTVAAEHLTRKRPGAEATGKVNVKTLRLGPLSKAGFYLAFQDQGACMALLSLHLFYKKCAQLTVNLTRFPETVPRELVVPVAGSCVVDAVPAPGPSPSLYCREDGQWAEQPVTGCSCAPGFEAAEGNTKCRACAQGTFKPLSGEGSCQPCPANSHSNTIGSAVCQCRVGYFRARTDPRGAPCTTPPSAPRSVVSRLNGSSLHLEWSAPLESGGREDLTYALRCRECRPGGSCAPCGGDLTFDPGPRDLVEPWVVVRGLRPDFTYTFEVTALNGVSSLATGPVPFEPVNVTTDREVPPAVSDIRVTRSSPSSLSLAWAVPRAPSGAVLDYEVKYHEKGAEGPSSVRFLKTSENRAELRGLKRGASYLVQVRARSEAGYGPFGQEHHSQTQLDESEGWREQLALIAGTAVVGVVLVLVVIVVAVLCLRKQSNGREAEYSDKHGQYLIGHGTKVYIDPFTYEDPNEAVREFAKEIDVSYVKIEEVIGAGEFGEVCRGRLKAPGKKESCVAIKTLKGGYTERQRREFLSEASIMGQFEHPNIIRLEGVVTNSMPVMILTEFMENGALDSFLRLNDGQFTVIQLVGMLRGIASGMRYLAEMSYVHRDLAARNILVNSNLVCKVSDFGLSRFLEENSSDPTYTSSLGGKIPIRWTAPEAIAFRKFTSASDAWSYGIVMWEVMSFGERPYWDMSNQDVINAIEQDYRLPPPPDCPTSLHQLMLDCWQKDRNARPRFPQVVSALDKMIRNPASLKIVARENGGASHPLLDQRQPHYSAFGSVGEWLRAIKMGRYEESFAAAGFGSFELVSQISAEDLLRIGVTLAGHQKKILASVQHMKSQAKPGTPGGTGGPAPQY
Nature of the assay: Inhibition of EPHB4 (unknown origin) assessed as residual activity at 1000 nM by KINOMEscan analysis relative to control.

The target in assay [2] is Mitogen-activated protein kinase 1 (Homo sapiens) (UniProt P28482). Briefly: Inhibition of ERK2 (unknown origin) assessed as residual activity at 1000 nM by KINOMEscan analysis relative to control.
The target in assay [3] is T2, Tyrosine-protein kinase JAK3 (Homo sapiens) (UniProt P52333).
T2 sequence (whole entry): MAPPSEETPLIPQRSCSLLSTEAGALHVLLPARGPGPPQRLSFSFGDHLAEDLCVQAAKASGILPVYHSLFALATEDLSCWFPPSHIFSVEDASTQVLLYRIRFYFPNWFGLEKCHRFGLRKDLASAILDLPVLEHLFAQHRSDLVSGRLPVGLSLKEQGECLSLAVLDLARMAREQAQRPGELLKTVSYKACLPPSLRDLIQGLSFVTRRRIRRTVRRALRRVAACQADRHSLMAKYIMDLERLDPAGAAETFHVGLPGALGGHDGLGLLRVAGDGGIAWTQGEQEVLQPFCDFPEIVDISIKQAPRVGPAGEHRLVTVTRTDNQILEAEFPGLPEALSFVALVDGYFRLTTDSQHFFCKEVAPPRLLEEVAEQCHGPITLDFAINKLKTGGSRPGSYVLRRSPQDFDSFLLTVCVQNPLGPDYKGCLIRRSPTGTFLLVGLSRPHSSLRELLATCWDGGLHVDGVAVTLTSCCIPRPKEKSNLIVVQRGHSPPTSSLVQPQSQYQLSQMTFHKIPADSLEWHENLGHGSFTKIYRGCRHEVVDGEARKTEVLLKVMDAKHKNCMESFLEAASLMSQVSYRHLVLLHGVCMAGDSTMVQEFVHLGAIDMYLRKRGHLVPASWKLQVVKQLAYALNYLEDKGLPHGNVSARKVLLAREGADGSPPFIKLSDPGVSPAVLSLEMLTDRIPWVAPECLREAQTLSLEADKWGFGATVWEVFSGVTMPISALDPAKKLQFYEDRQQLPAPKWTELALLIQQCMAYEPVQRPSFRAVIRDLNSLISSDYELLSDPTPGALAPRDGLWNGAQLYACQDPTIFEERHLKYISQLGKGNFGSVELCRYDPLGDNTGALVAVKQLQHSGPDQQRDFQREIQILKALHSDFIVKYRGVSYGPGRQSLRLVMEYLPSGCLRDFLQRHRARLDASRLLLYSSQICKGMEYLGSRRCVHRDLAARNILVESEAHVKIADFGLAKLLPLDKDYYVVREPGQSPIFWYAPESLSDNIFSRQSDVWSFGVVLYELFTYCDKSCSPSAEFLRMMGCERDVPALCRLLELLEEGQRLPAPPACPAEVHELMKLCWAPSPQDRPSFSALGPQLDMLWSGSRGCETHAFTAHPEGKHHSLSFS
Nature of the assay: Inhibition of JAK3 JH1 catalytic domain (unknown origin) assessed as residual activity at 1000 nM by KINOMEscan analysis relative to control.

Mitogen-activated protein kinase 1 (Homo sapiens), sequence (P28482 whole entry): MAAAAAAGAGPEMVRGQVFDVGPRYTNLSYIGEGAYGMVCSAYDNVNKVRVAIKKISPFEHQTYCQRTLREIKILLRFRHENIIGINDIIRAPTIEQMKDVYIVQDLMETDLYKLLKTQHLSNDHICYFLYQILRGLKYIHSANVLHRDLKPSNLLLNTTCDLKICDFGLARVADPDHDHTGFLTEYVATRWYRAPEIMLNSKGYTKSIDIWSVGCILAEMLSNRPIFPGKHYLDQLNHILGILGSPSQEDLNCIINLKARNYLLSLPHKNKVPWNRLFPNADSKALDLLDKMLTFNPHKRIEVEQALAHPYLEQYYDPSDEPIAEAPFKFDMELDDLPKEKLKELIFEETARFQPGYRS

As for `COc1cc2ncnc(N[C@H](C)c3cccc4ccccc34)c2cc1OC`, the Activity in assay [1] amounted to 99%; in assay [2], 96%; in assay [3] it was 81%.
As for `COc1cc2nc(C)nc(N[C@H](C)c3cccc(-c4cn[nH]c4)c3)c2cc1OC`, the Activity in assay [1] amounted to 45%; in assay [2], 90%; in assay [3] it was 100%.
